pKd: −log10 of the molar value.
Target: NAT (N-acetyltransferase)
Assay: Kd measurement (Fig. S8, method not shown); fluorescence titration and 1H NMR of acetylation by NAT

- pKd: 5.65
Structure (SMILES): COc1ccc2c(c1)c(CC(=O)NCCCCN1C(=O)c3cccc4cc(N)cc(c34)C1=O)c(C)n2C(=O)c1ccc(Cl)cc1 [3IAN4]

Source: paper PMC7480271, “A molecular-logic gate for COX-2 and NAT based on conformational and structural changes: visualizing the progression of liver disease” (Chemical Science, 2020)
